{"source": "patent US20150218594A1", "about": "“CELL-FREE AND MINIMIZED METABOLIC REACTION CASCADES FOR THE PRODUCTION OF CHEMICALS” (CLARIANT PRODUKTE (DEUTSCHLAND) GMBH, priority 2012, published 2015)", "key": {"[1]": {"conditions": "20° C.; cited from earlier work"}, "[2]": {"system": "artificial enzyme cascade", "assay": "Solvent tolerance of the artificial enzyme cascade (glucose to ethanol with increasing isobutanol)", "type": "biochemical", "method": "A key characteristic of cell-free systems is their pronounced tolerance against higher alcohols.\nAll reactions were set up in 20 ml GC vials. Reaction mixtures contained 100 mM HEPES (pH 7 at 50° C.), 0.1 mM thiamine-pyrophosphate, 2.5 mM MgCl2, 25 mM D-glucose and 5 mM NAD. […] Reaction mixtures were placed in a water bath at 50° C. and gently stirred at 100 rpm."}, "E. coli": {"system": "E. coli", "conditions": "recombinant fermentative production in E. coli; cited from earlier work"}, "microbial cells": {"system": "microbial cells", "conditions": "cited from earlier work"}}, "data": [{"smiles": "CCC(C)O", "note": "(stereo not shown) [2-Butanol]", "values": [{"measurement": "restricted miscibility in water", "setting": "[1]", "result": "about 12%"}]}, {"smiles": "CC(C)CO", "note": "[isobutanol]", "values": [{"measurement": "ethanol produced in the presence of 6% (v/v) isobutanol", "setting": "[2]; 6% (v/v) isobutanol, in 8 h", "result": 1.4, "unit": "mM"}, {"measurement": "isobutanol concentration up to which cell-free ethanol productivity and reaction kinetics were not significantly affected", "setting": "[2]; glucose to ethanol as in Example 1, 50° C.", "result": "up to 4 % (v/v)"}, {"measurement": "isobutanol titers that induce toxic effects in the microbial production host", "setting": "E. coli", "result": "1-2 % (v/v)"}, {"measurement": "restricted miscibility in water", "setting": "[1]", "result": "9-10%"}, {"measurement": "isobutanol concentration that results in loss of productivity of microbial cells", "setting": "microbial cells", "result": "ca. 1 % v/v"}]}, {"smiles": "CCCCO", "note": "[n-Butanol]", "values": [{"measurement": "restricted miscibility in water", "setting": "[1]", "result": "7-8%"}]}]}
